# “Also recorded” adds a separate entry of the source.
# Legend:
# [1] = system: neutrophils; conditions: cited from earlier work
# [2] = system: NK-92 cells; assay: Degranulation assay (Granzyme A activity, BLT esterase) of NK-92 cells activated by immobilized antibody to NKp30 and CD18; format: cell-based, human; conditions: thapsigargin 1 μM, positive control
# Method: Immulon 4HBX 96 well flat bottom plates (Thermo) were coated with murine IgG (BD), anti-human NKp30, anti-human CD18, or both anti-NKp30 and anti-CD18 at 5 μg/mL in PBS overnight at 4° C. Plates were washed twice with PBS and blocked for 1 hr at room temperature with R10 media. One×10^5 cells were added to wells and plates were spun at 1000 rpm for two minutes before incubation at 37° C. For the timecourse degranulation assay, supernatants from spontaneous and activated wells were harvested at indicated times. For inhibitor treatments, media containing inhibitor or vehicle (DMSO) was added at indicated times. Inhibitors used were jasplakinolide (1 μM, Calbiochem), latrunculin A (10 μM, Sigma), cytochalasin D (10 μM, Sigma), and thapsigargin (1 μM, Calbiochem). Supernatatants were harvested after 60 minutes. For total release, cells were lysed in 0.5% Nonidet P40 (Accurate Chemical and Scientific). […] Samples were incubated for 30 minutes at 37° C. and absorbance was measured immediately at 405 nm. Percent total release was measured by subtracting the spontaneous release value from activated release values (A-S) and the total release value (T-S), and then dividing (A-S) by (T-S).
# [3] = system: NK cell cortical actin filaments; conditions: cited from earlier work
# [4] = system: NK cell; conditions: cited from earlier work
# [5] = system: PC12 chromaffin cells; conditions: cited from earlier work
# [6] = system: NK92 cells expressing pHlourin-LAMP1; assay: Live cell TIRFm of lytic granule motility and persistence in activated pHluorin-LAMP1 NK92 cells; format: cell-based, human; conditions: for pre-degranulation motility of granules: 10 μM LatA added after 10 minutes, vs DMSO control; for number / accumulation of granules at the TIRF plane of the activated NK IS: LatA-treated cells, not quantified
# Method: For NK92 lytic granule motility studies, pHluorin-LAMP1 NK92 cells were suspended in dye free RPMI 10% FBS media at a concentration of 7.5×10^5 to 10^6 cells/ml and incubated with 100 nM LysoTracker® Red DND-99 (Invitrogen) at 37° C. for 30 minutes, washed, and resuspended in media. ΔT culture dishes (Bioptechs) were coated with […] anti-NKp30 and -CD18, incubated at 37° C. for 1 hour or 4 degrees overnight, washed with PBS, and pre-warmed with dye free RPMI 10% FBS media. NK92 cells were plated on ΔT culture dishes immediately prior to imaging, and temperature was maintained at 37° C. throughout the experiment using a ΔT culture dish heater and lid (Bioptechs).
# Cells were imaged in a single z-plane 10-15 minutes after addition to imaging chambers through an APO N TIRFm, oil immersion 60×1.49 NA objective using an Olympus IX-81 spinning disk confocal microscope with a rear-mounted TIRF illuminator and a Hamamatsu EM CCD C9100 camera. Excitation was by 480 nm (Spectra-Physics) and 561 nm (Cobalt) diode lasers through a LMM5 laser combiner unit (Spectral Applied Research). Cell image sequences were captured in TIRF mode at the interface between the cell and the glass over 60-80 minutes at 6 frames per minute using Volocity® software (PerkinElmer). Where indicated, cells were incubated with 10 μM LatA (Sigma) following 10 minutes of pre-incubation in the imaging chamber.
# For TIRFm analysis, image sequences were analyzed using Volocity® software (PerkinElmer). LysoTracker® Red and pHluorin positive events were identified and cropped in Volocity®. Object tracks were generated over time using the “track objects manually” function and the rectangular selection tool for each event; the track length, track velocity, displacement, and displacement rate of each lytic granule were measured for both LysoTracker® Red time points and pHluorin time points, and comparatively graphed on GraphPad Prism® Version 5.0 (GraphPad software). Overlays of lytic granule tracks were generated by the plotting of X and Y coordinate values from Volocity with GraphPad Prism® for both Lysotracker® Red and pHluorin. To measure the time persistence of LysoTracker® Red lytic granules within the TIRF field, the time of LysoTracker® Red emergence on the TIRF field was subtracted from the time of pHlourin appearance or LysoTracker® Red disappearance and multiplied by 60 to obtain time persistence in seconds.
# For LatA experiments, granules with both Lysotracker Red and pHluorin traces were identified and cropped in Volocity®. Objects were identified using a threshold of 3 SD above the mean field fluorescence for each timepoint to account for photobleaching using the “Find Objects Using SD Intensity” function. Objects smaller than 0.032 μm^2 were excluded from further analysis. Tracks were then generated using the “Track Objects” feature using the “Shortest Path” tracking model, and the track length, track velocity, displacement, displacement rate, and time span of each lytic granule tabulated and graphed using GraphPad Prism® software Version 5.0.
# The sum fluorescent intensity and area of each granule was also recorded at each timepoint. Using the initial appearance of pHluorin-LAMP1 as time zero, the average sum fluorescent intensity post-degranulation was calculated and graphed for lytic granules treated with DMSO vehicle control versus those treated with LatA. For area measurements, the borders of individual granules were defined as those above 3 SD.
# [7] = system: resting human NK cells; conditions: cited from earlier work
# [8] = system: NK-92 cells expressing pHluorin-LAMP1; assay: Flow cytometry of green fluorescence of NK-92 cells expressing pHluorin-LAMP1; format: cell-based, human; conditions: for pHluorin fluorescence: PMA 100 ng/mL and Ionomycin 1 μg/mL together for 30 minutes
# Method: Flow cytometry was performed to verify pHluorin-LAMP1 expression. Cells were untreated or treated with phorbol myristate acetate (PMA, 100 ng/mL,Sigma) and Ionomycin (1 μg/mL, Sigma) for 30 minutes or Concanamycin A (CMA, 100 nM, Sigma) for 90 minutes and samples were run on a Becton Dickinson FACSCalibur™.
# [9] = 10 μM LatA, 12-18 tracks, normalized to DMSO control
smiles,measurement,setting,value
C=C1[C@@H](C)[C@H]2[C@H](Cc3ccccc3)NC(=O)[C@]23[C@H](OC(C)=O)/C=C/[C@@](C)(O)C(=O)[C@@H](C)C/C=C/[C@H]3[C@@H]1O [cytochalasin D],accumulation of granules at the exocytic zone,[1],seems to promote the accumulation of granules
same,movement of granules in the TIRF plane at the membrane,[1],does not prevent movement of granules
"C/C=C(/C)C(=O)O[C@H]1C(C)=C2[C@H]([C@@H]1OC(=O)CCCCCCC)[C@@](C)(OC(C)=O)C[C@H](OC(=O)CCC)[C@@]1(O)[C@H]2OC(=O)[C@@]1(C)O [Thapsigargin, thapsigargin]",effect on degranulation,[2],positive effect on degranulation
"C/C1=C/C(=O)O[C@@H]2C[C@@H](CC[C@H](C)/C=C\C=C\CC1)O[C@@](O)([C@@H]1CSC(=O)N1)C2 [LatA, latrunculin A]",depolymerization of cortical actin,[3],rapidly depolymerizes; also recorded: completely depolymerizes cortical actin
same,cytotoxic function,[4],abrogates cytotoxic function
same,expulsion of granule contents,[5],more rapid expulsion of granule contents
same,pre-degranulation motility of granules,[6],intact; also recorded: did not significantly affect granule movement prior to degranulation
same,pre-degranulation motility of granules,[6]; listed as Latrunculin A,did not affect pre-exocytosis movement
same,lytic granule total displacement,[6]; [9],no significant differences
same,lytic granule track length,[6]; [9],no significant differences
same,lytic granule velocity,[6]; [9],no significant differences
same,timespan of green fluorescence (persistence following exocytosis),"[6]; 10 μM LatA, control normalized to 1.0±0.56, p=0.0441",0.59±0.442
same,lifetime of red fluorescence (timespan pre-degranulation),"[6]; 10 μM LatA, control normalized to 1.0±0.87",1.1±0.61 AU
same,median time for 50% survival of granules following degranulation (Kaplan-Meier),"[6]; 10 μM LatA, control treated cells 28.8 minutes",13.7 min
same,area of granules post-degranulation,"[6]; LatA vs DMSO, over 40 minutes p<0.0001, truncated at 20 minutes p=0.4438",slightly greater area
same,sum fluorescent intensity (MFI*area) of granules post-degranulation,"[6]; LatA vs DMSO, up to forty minutes post-degranulation, p<0.0001 Mann Whitney U test",significantly greater sum fluorescent intensity (MFI*area) of granules from DMSO treated cells
same,number / accumulation of granules at the TIRF plane of the activated NK IS,[6],no observable defect in the number of granules that reached the TIRF plane
same,number / accumulation of granules at the TIRF plane of the activated NK IS,[6]; listed as Latrunculin A,gross accumulation of granules was not observed
COC(=O)Nc1nc2ccc(C(=O)c3cccs3)cc2[nH]1 [nocodazole],movement of granules at the plasma membrane / cortex,[7],arrests the movement of granules at the cortex
"C[C@H](CCC(=O)O)C[C@H](C)C[C@H](C)C(=O)/C=C(\O)[C@H](C)C[C@H](C)C/C=C/[C@@H](C)[C@@H](O)[C@@H](C)[C@@H](O)C[C@@H]1CC[C@@](C)([C@H]2CC[C@@](C)([C@@H](C)O)O2)O1 [ionomycin, Ionomycin]",pHluorin fluorescence,[8],rapid increase in pHluorin fluorescence
"CCCCCCCCCCCCCC(=O)O[C@@H]1[C@@H](C)[C@@]2(O)[C@@H](C=C(CO)C[C@]3(O)C(=O)C(C)=C[C@@H]23)[C@@H]2C(C)(C)[C@]12OC(C)=O [PMA, phorbol myristate acetate]",pHluorin fluorescence,[8],rapid increase in pHluorin fluorescence
"C/C=C/[C@H]1O[C@@](O)([C@@H](C)[C@H](O)[C@H](C)[C@H]2OC(=O)/C(OC)=C/C(C)=C/[C@@H](C)[C@@H](O)[C@@H](CC)[C@@H](O)[C@H](C)C/C(C)=C/C=C/[C@@H]2OC)C[C@@H](O[C@H]2C[C@@H](O)[C@H](OC(N)=O)[C@@H](C)O2)[C@@H]1C [concanamycin A, Concanamycin A]",green fluorescence measured by flow cytometry,[8]; Concanamycin A 100 nM for 90 minutes,robust increase in green fluorescence
C/C1=C/C(=O)O[C@@H]2C[C@@H](CC[C@H](C)/C=C\CC1)O[C@@](O)([C@@H]1CSC(=O)N1)C2 [Latrunculin B],movement of granules at the plasma membrane / cortex,[7],arrests those granules constitutively found at the plasma membrane
same,numbers of granules at the plasma membrane,[7],does not result in increased numbers of granules
